From patent US20260125379A1, “PRODRUG OF JAK KINASE INHIBITOR” (E-nitiate Biopharmaceuticals (Hangzhou) Co., Ltd, priority 2022, published 2026)
Where a name gives a salt, the structure may show the parent alone.

Experiments:
JAK1 = JAK1 (Homo sapiens, UniProt P23458); assay: JAK1 kinase inhibition assay (ULight-JAK-1 substrate, Eu-labeled anti-phosphotyrosine antibody); assay type: biochemical; conditions: JAK1 10 nM, substrate 50 nM, ATP 40 μM, 2 hours at room temperature
Procedure: (§1) Example A: Activity Detection of JAK Kinase Small Molecule Inhibitors
(§2) Kinase reaction buffer was prepared with the following components: 50 mM HEPES, pH 7.5, 1 mM EGTA, 10 mM MgCl2, 2 mM DTT, 0.01% Tween20.
(§3) Detection buffer was prepared by diluting 10× detection buffer to IX with deionized water in a ratio of 9:1.
(§4) JAK kinase was diluted with kinase reaction buffer to 4× final concentration (JAK1: 40 nM, JAK2: 0.5 nM).
(§5) ULight™-JAK-1 (Tyr1023) substrate was diluted with kinase reaction buffer to 200 nM (final concentration: 50 nM).
(§6) ATP was diluted with kinase reaction buffer to 4× final concentration (JAK1: 160 μM, JAK2: 40 μM).
(§7) Compound to be tested was dissolved with DMSO to obtain a 10 mM storage solution, which was diluted to desired concentrations by a 3-fold gradient; for each compound 10 concentration points were set, and the final concentration of the compound to be tested ranges from 10 μM to 0.5 nM.
(§8) EDTA was dissolved with 1× detection buffer to 40 mM (EDTA final concentration: 10 mM).
(§9) Eu-labeled detection antibody (anti-phosphotyrosine (PT66)) was diluted with 1× detection buffer to 8 nM (final antibody concentration: 2 nM).
(§10) (1) To a 384-well plate, 2.5 μL 4× kinase solution and 2.5 μL 4× test compound solution with different concentrations that have been diluted were added successively, each concentration was set in duplicate, and an enzyme solution blank control and a negative control (DMSO group) were also set.
(§11) (2) The 384-well plate was shaken to mix enzyme and compound well, and then centrifuged at 1000 rpm for 1 minute, and incubated at room temperature for 60 minutes.
(§12) (3) 2.5 μL 4× substrate solution was added to the 384-well plate and centrifuged at 1000 rpm for 1 minute.
(§13) (4) 2.5 μL 4× ATP solution was added to the 384-well plate and centrifuged at 1000 rpm for 1 minute, and then enzyme reaction was initiated.
(§14) (5) For JAK1 the reaction was carried out at room temperature for 2 hours, and for JAK2 the reaction was carried out at room temperature for 1 hour.
(6) For the JAK1 reaction, the final concentrations of components are as follows: JAK1: 10 nM, substrate: 50 nM, ATP: 40 μM; and the final concentration of the tested compounds ranges from 10μ M to 0.5 nM.
(§15) (7) After the enzyme reaction was completed, 5 μL 4× enzyme reaction termination solution was added to each well of the 384-well plate, and then centrifuged at 1000 rpm for 1 minute and incubated at room temperature for 5 minutes.
(§16) (8) 5 μL 4× detection antibody solution (the final concentration of detection antibody is 2 nM) was added to each well of the 384-well plate, and then centrifuged at 1000 rpm for 1 minute and incubated at room temperature for 1 hour.
(§17) (9) At the antibody incubation was completed, signal value of each well was measured on a Envision plate reader.
(§18) (1) The percentage inhibition rate corresponding to each concentration of the tested compound was calculated on the basis that the blank control of enzyme solution corresponds to 100% and the negative control (DMSO group) corresponds to 0%.
(§19) (2) A nonlinear regression analysis of the logarithm of the concentration of the detected compound and the corresponding percentage inhibition rate was performed in GraphPad Prism software to obtain the half-inhibiting concentration (IC50) of the tested compound.

JAK2 = JAK2 (Homo sapiens, UniProt O60674); assay: JAK2 kinase inhibition assay (ULight-JAK-1 substrate, Eu-labeled anti-phosphotyrosine antibody); assay type: biochemical; conditions: JAK2 0.125 nM, substrate 50 nM, ATP 10 μM, 1 hour at room temperature
Procedure: as §1, §2, §3, §4, §5, §6, §7, §8, §9, §10, §11, §12, §13, §14
For the JAK2 reaction, the final concentrations of component are as follows: JAK2: 0.125 nM, substrate: 50 nM, ATP: 10 μM; and the final concentration of the tested compound ranges from 10 μM to 0.5 nM.
as §15, §16, §17, §18, §19

Chain of JAK1 (P23458 whole entry, species assumed): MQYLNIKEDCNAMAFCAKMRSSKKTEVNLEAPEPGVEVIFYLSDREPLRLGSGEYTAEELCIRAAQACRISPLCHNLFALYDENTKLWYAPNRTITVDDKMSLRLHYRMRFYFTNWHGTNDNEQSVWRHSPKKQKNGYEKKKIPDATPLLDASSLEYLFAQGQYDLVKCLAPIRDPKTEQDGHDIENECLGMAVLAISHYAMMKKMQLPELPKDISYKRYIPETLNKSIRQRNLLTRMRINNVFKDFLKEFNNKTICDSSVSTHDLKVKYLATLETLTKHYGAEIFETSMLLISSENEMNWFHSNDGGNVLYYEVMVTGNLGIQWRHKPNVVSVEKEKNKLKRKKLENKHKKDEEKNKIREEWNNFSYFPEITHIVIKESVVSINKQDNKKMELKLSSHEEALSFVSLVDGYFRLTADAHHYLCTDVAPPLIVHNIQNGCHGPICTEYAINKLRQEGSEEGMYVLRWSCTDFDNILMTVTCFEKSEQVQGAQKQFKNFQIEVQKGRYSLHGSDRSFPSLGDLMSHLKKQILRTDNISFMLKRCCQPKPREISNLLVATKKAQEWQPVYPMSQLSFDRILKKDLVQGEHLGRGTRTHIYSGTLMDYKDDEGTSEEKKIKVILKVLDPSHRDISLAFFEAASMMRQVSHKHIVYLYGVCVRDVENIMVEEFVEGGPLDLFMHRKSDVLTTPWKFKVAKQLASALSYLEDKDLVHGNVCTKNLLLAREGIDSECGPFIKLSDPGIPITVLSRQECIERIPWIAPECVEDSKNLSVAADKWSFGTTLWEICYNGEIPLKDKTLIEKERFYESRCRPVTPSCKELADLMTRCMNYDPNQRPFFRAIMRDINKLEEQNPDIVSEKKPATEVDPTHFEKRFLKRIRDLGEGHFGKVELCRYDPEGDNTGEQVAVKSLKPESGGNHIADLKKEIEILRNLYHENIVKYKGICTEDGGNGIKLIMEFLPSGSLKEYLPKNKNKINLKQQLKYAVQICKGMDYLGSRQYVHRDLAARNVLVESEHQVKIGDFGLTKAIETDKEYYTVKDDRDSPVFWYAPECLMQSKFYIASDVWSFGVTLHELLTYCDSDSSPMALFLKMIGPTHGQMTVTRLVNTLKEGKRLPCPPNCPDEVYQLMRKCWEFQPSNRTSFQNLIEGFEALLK
Chain of JAK2 (O60674 whole entry, species assumed): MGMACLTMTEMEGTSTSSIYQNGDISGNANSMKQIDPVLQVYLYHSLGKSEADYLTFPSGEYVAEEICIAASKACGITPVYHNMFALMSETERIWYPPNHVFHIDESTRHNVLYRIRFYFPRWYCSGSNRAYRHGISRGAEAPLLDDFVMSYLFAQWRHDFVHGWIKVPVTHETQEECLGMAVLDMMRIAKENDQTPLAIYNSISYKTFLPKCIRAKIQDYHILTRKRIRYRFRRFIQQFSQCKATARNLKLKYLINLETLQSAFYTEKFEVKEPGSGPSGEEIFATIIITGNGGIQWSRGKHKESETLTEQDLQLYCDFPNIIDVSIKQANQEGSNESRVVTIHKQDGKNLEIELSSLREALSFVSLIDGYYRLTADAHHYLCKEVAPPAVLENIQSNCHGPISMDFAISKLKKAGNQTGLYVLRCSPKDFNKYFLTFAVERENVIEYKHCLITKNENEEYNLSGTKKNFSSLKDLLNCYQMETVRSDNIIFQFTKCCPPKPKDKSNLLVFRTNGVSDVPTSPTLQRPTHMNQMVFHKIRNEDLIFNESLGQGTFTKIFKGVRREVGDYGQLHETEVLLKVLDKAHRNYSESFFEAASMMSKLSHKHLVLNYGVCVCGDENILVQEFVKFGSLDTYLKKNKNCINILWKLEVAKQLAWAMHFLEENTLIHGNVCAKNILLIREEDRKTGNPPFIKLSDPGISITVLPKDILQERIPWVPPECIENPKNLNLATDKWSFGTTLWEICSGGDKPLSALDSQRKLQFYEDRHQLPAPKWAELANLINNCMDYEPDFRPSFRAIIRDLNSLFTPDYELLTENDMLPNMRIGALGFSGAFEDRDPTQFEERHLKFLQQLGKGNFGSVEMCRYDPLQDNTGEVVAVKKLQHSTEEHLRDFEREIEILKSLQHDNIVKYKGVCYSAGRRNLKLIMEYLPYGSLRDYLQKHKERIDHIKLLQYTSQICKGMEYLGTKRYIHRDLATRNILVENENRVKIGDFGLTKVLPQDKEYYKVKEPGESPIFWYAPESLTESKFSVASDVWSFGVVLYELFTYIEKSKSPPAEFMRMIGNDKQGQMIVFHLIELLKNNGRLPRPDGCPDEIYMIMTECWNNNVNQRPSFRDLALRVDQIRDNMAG

| Compound | IC50 (JAK1) [nM] | IC50 (JAK2) [nM] |
| --- | --- | --- |
| COC(=O)/C=C/C(=O)OCO[C@H](C)c1nc2cnc3[nH]ccc3c2n1N1CCC(CC#N)CC1 [Compound A10, (R)-(1-(1-(4-(cyanomethyl)piperidin-1-yl)-1,6-dihydroimidazo[4,5-d]pyrrolo[2,3-b]pyridin-2-yl)ethoxy)methyl monomethyl fumarate] | 96.7 | 21.1 |
| CSCC1(C)CCN(n2c(CO[N+](=O)[O-])nc3cnc4[nH]ccc4c32)CC1 [Compound A11, (1-(4-Methyl-4-((methylthio)methyl)piperidin-1-yl)-1,6-dihydroimidazo[4,5-d]pyrrolo[2,3-b]pyridin-2-yl)methyl nitrate] | 5.62 | 4.19 |
| C[C@@H](OC(=O)Nc1ccccc1/N=N/c1ccc(O)c(C(=O)O)c1)c1nc2cnc3[nH]ccc3c2n1N1CCC(CC#N)CC1 [Compound A4] | 105 | 100 |
| CC(C)[C@H](N)C(=O)O[C@H](C)c1nc2cnc3[nH]ccc3c2n1N1CCC(CC#N)CC1 [Compound A9, (R)-1-(1-(4-cyanomethylpiperidin-1-yl)-1,6-dihydroimidazo[4,5-d]pyrrolo[2,3-b]pyridin-2-yl)ethyl L-valinate] | 3.05 | 56.4 |

Other lines, results leading:

| IC50 (JAK1) [nM] | IC50 (JAK2) [nM] | Compound |
| --- | --- | --- |
| 1.6 | 3.38 | N#CC[C@H]1CC[C@H](n2c(/N=N/c3ccc(O)c(C(=O)N[C@H](CCCN=C(N)N)C(=O)O)c3)nc3cnc4[nH]ccc4c32)CC1 [Compound B11, (R)-2-(5-((E)-(1-((1R,4R)-4-(cyanomethyl)cyclohexyl)-1,6-dihydroimidazo[4,5-d]pyrrolo[2,3-b]pyridin-2-yl)diazenyl)-2-hydroxybenzamido)-5-((diaminomethylene)amino)valeric acid] |
| 2.52 | 6.62 | N#CC[C@H]1CC[C@H](n2c(/N=N/c3ccc(O)c(C(=O)N[C@H](CCCCN)C(=O)O)c3)nc3cnc4[nH]ccc4c32)CC1 [Compound B9, (5-((E)-(1-((1R,4R)-4-(cyanomethyl)cyclohexyl)-1,6-dihydroimidazo[4,5-d]pyrrolo[2,3-b]pyridin-2-yl)diazenyl)-2-hydroxybenzoyl)-D-lysine] |
| 2.15 | 38.7 | Nc1nc2cnc3[nH]ccc3c2n1N1CCCCC1 [Compound B1, 1-(Piperidin-1-yl)-1,6-dihydroimidazo[4,5-d]pyrrolo[2,3-b]pyridin-2-amine] |
| 1.34 | 0.28 | N#CC[C@H]1CC[C@H](n2c(/N=N/c3ccc(O)c(C(=O)N[C@H](CCC(=O)O)C(=O)O)c3)nc3cnc4[nH]ccc4c32)CC1 [Compound B10, (5-((E)-(1-((1R,4R)-4-(cyanomethyl)cyclohexyl)-1,6-dihydroimidazo[4,5-d]pyrrolo[2,3-b]pyridin-2-yl)diazenyl)-2-hydroxybenzoyl)-D-glutamic acid] |
| 1.75 | 4.26 | N#CC[C@H]1CC[C@H](n2c(/N=N/c3ccc(O)c(C(=O)N[C@H](CC(=O)O)C(=O)O)c3)nc3cnc4[nH]ccc4c32)CC1 [Compound B8, (5-((E)-(1-((1R,4R)-4-(cyanomethyl)cyclohexyl)-1,6-dihydroimidazo[4,5-d]pyrrolo[2,3-b]pyridin-2-yl)diazenyl)-2-hydroxybenzoyl)-D-aspartic acid] |
| 0.47 | 1.74 | N#CCC1CCN(n2c(N)nc3cnc4ccsc4c32)CC1 [Compound B4, 2-(1-(2-amino-1H-imidazo[4,5-d]thieno[3,2-b]pyridin-1-yl)piperidin-4-yl)acetonitrile] |
| 1.02 | 0.47 | N#CC[C@H]1CC[C@H](n2c(/N=N/c3ccc(O)c(C(=O)NCCS(=O)(=O)O)c3)nc3cnc4[nH]ccc4c32)CC1 [Compound B12, 2-(5-((E)-(1-((1R,4R)-4-(cyanomethyl)cyclohexyl)-1,6-dihydroimidazo[4,5-d]pyrrolo[2,3-b]pyridin-2-yl)diazenyl)-2-hydroxybenzamido) ethan-1-sulfonic acid] |
